The values that follow come from US9777037B2, “Neurosteroid compounds” (BIONATURE E. A. LTD., priority 2007, dated 2017).

Experiment [1] relates to Bcl-2 and Bcl-xL proteins. As to the kind of experiment: Western blot of anti-apoptotic Bcl-2 and Bcl-xL proteins in serum-deprived PC12 cells. The experiment is classed as cell-based, rat. To be noted: 10 nM neurosteroid (FIG. 4). On the procedure: Neural-crest derived PC12 cells were cultured for 8 hours in the absence of serum, but supplemented with 10 nM of various neurosteroids. At the end of incubation cell lysates were subjected to electrophoresis through a 12% SDS-polyacrylamide gel. Then, proteins were transferred to nitrocellulose membranes, which were processed according to standard Western blotting procedures. To detect protein levels, membranes were incubated with the appropriate antibodies: Bcl-2, (Santa Cruz Biotechnology Inc., Santa Cruz, Calif., dilution 1:100) Bcl-xL (Cell Signalling Technology Inc., Beverly, Mass., dilution 1:100). A PC-based Image Analysis program was used to quantify the intensity of each band (Image Analysis, Inc., Ontario, Canada). To normalize for protein content, the blots were stripped and stained with anti-actin antibodies (Chemicon, Temecula, Calif., dilution 1:400); the concentration of each target protein was normalized versus actin.

Experiment [2] relates to Dopaminergic neural-crest derived PC12 cells. As to the kind of experiment: Dopamine secretion from dopaminergic PC12 cells (radioimmunoassay). To be noted: 10^-7 M. The experiment is classed as cell-based, rat. On the procedure:
Dopaminergic neural-crest derived PC12 cells were grown in 6-well plates, coated with poly-L-lysine, at a concentration of 10^6 cells/well. Cells were incubated with neurosteroids or the vehicle for several time periods; for the short-term experiments the incubation time ranged from 5 to 30 minutes and for the long-term from 3 to 48 hours. 1 mL of supernatants were transferred to tubes containing 200 μl 0.1 M HCl for measurement of dopamine, which was measured by radioimmunoassay (TriCat™ RIA, RE29395, IBL Immuno Biological Lab., Hamburg, Germany) using ^125I as a tracer. The analytical sensitivity of the method was 30 pg/ml, its intra-assay CV was 9.5%, and its inter-assay CV was 16.7%. The cross reactivity between dopamine and norepinephrine was <0.013%

The subject of experiment [3] is tyrosine hydroxylase mRNA. As to the kind of experiment: Tyrosine hydroxylase (TH) RT-PCR in dopaminergic PC12 cells. The experiment is classed as cell-based, rat. To be noted: dopaminergic PC12 cells (FIG. 6C). On the procedure: Tyrosine Hydroxylase (TH) RT-PCR: Total RNA was extracted from dopaminergic PC12 cells using the Trizol Reagent (Invitrogen Life technologies, CA). One microgram of total RNA was reverse transcribed by the Thermo-Script RT-PCR System (Invitrogen) using random hexamers in a total volume of 20 μl. Two microliters of the RT product was used as a template, amplified by PCR using 2 mM MgCl2, one strength PCR buffer, 0.2 mM of sense and antisense primers, 0.2 mM dNTPs and 2.5 U AmpliTaq Gold DNA polymerase (Perkin Elmer ABD, Foster City, Calif.) in a final reaction volume of 50 μl. PCR was performed in a Perkin Elmer DNA Thermal Cycler. Primers for TH were 5′-[…]-3′ (sense), and 5-[…]-3 (antisense) and for G3PDH were, 5′-[…]-3′ (sense), and 5′-[…]-3′ (antisense). Oligonucleotides were synthesized by MWG-Biotech AG (Munich, Germany). After reverse transcription, the cDNA product was amplified by PCR, at 33 cycles. The cycle number (33) was chosen such that amplification of the products was in the linear range with respect to the amount of input cDNA. PCR for G3PDH was performed in parallel to assure good quality of RNA and cDNA preparations. Each cycle consisted of 60 s at 92° C. for denaturation, 120 s at 53° C. for annealing, and 180 s at 72° C. for extension (60 s at 98° C., 90 s at 55° C., and 150 s at 72° C. for G3PDH respectively). 10 μl of the amplified products (368 bp for TH and 983 bp for G3PDH) were separated on a 2% agarose gel and visualized by ethidium bromide staining.

Another experiment relates to Ishikawa cells. As to the kind of experiment: Alkaline phosphatase activity of Ishikawa cells, estrogen agonism/antagonism. Type of experiment: cell-based, human. From the text: Treatment of postmenopausal syndromes with 17β-estradiol (E2) is associated with a higher risk of developing breast and/or endometrial cancer (Arch Intern Med. 166, 1027 (2006)). E2 stimulation of the proliferation of cancer cells is driven by estrogen receptor alpha (ERα) (Mol. Endocrinol. 13, 969 (1999)). Since BNN-50, BNN-93 and BNN-124 may form two hydrogen bonds with an O—O distance of 10.9-12.5 Å and thus may fit the ERα binding cavity (Chem. Biol. 11, 397 (2004)), it was imperative to examine the estrogen agonism/antagonism properties of these neurosteroids using human adenocarcinoma cells from breast (MCF-7 cells) and uterus (Ishikawa cells) as reporters. Full estrogen agonism (E2 at ≧0.1 nM) and non-agonism (vehicle only) controls served to classify the neurosteroids as super, full, partial, weak and marginal agonists depending on whether their estrogenic efficacy was >100, 76-100, 26-75, 10-25 and 1-10% of that of E2 (set equal to 100). Similarly, full antagonism of the effect of E2 (at 0.1 nM) by ICI 182, 780 (at ≧10 nM) and non-antagonism (vehicle only) controls served to classify the neurosteroids as full, partial, weak and marginal antagonists depending on whether their suppression of the effect of E2 was 76-100, 26-75, 10-25 and 1-10% of that of ICI 182, 780. Differences between control and neurosteroid-treated cells were assessed using one-way ANOVA. […]

On to `C[C@]12CC[C@H](O)CC1=CCC1C2CC[C@@]2(C)C1CC[C@@]21CO1` (stereo partly drawn) [BNN-50, 17β-spiro-[5-androsten-17,2′-oxiran]-3β-ol], for which the “levels of anti-apoptotic Bcl-2 and Bcl-xL proteins” value in experiment [1] is on record as “preventing this effect”. In experiment [2] (3 to 48 hours (FIG. 6B)), the “dopamine levels in culture media, long-term” value is “increase of dopamine levels peaking at 24 h”. Moreover, the “stimulation of dopamine secretion, short-term” value in experiment [2] (5 to 30 min, effect within 10 min (FIG. 6A)) is recorded as “doubling their levels”. Besides, the “induction of tyrosine hydroxylase mRNA” value in experiment [3] is “strong induction”. Also, the “E2 agonism (at 1 uM), Ishikawa AlkP” value with Ishikawa cells is reported as “non-significant”. The “E2 antagonism (at 1 uM), Ishikawa AlkP” value in the experiment on Ishikawa cells (against E2 at 0.1 nM) is reported as “marginal (1-10% of that of ICI 182, 780)”.
